Converted amounts (≈) assume the structure as drawn. The source made the active and inactive calls. The calls are words filed in the database; no cut-off is given here.
Legend:
Streptococcus pyogenes [1] = test: Antibacterial activity against Streptococcus pyogenes CN10 up to 200 ug/ml; format: functional, organism-based
HeLa = test: Cytotoxicity against human HeLa cells up to 100 ug/ml; format: cell-based
Coxsackievirus B1 [2] = test: Antiviral activity against Coxsackievirus B1 infected in human HeLa cells up to 100 ug/ml by agar diffusion assay; format: functional, organism-based
Staphylococcus aureus [3] = test: Antibacterial activity against Staphylococcus aureus Russel up to 200 ug/ml; format: functional, organism-based
Influenza A virus [4] = test: Antiviral activity against influenza A virus NWS/H0N1 infected in BHK cells up to 100 ug/ml by agar diffusion assay; format: functional, organism-based
Staphylococcus aureus [5] = test: Antibacterial activity against Staphylococcus aureus 1517 up to 200 ug/ml; format: functional, organism-based
Enterococcus faecalis [6] = test: Antibacterial activity against Streptococcus faecalis I up to 200 ug/ml; format: functional, organism-based
Staphylococcus aureus [7] = test: Antibacterial activity against Staphylococcus aureus Oxford up to 200 ug/ml; format: functional, organism-based
Bacillus subtilis [8] = test: Antibacterial activity against Bacillus subtilis up to 200 ug/ml; format: functional, organism-based
Human alphaherpesvirus 1 = test: Antiviral activity against Herpes simplex virus 1 infected in chick embryo fibroblasts by plaque reduction assay; format: functional, organism-based
[9] = Cytotoxicity against BHK cells up to 100 ug/ml by carbol fuschin assay; format: cell-based, Mesocricetus auratus; settings: hamster
Influenza A virus [10] = test: Antiviral activity against influenza A virus NWS/H0N1 infected in BHK cells by agar diffusion assay; format: functional
Enterococcus faecalis [11] = test: Antibacterial activity against Streptococcus faecalis I; format: functional
Staphylococcus aureus [12] = test: Antibacterial activity against Staphylococcus aureus Russel; format: functional
Influenza A virus [13] = test: Antiviral activity against influenza A virus NWS/H0N1 infected in BHK cells at 1 mg/ml by agar diffusion assay; format: functional; settings: read-out: IZ
[14] = Cytotoxicity against BHK cells; format: cell-based, Mesocricetus auratus; settings: hamster
Coxsackievirus B1 [15] = test: Antiviral activity against Coxsackievirus B1 infected in human HeLa cells at 1 mg/ml by agar diffusion assay; format: functional; settings: Enterovirus B; read-out: IZ
Streptococcus pyogenes [16] = test: Antibacterial activity against Streptococcus pyogenes CN10; format: functional
Bacillus subtilis [17] = test: Antibacterial activity against Bacillus subtilis; format: functional
Staphylococcus aureus [18] = test: Antibacterial activity against Staphylococcus aureus 1517; format: functional
Staphylococcus aureus [19] = test: Antibacterial activity against Staphylococcus aureus Oxford; format: functional
Coxsackievirus B1 [20] = test: Antiviral activity against Coxsackievirus B1 infected in human HeLa cells by agar diffusion assay; format: functional
[21] = Cytotoxicity against human HeLa cells by neutral red assay; format: cell-based

| Compound | Activity (Streptococcus pyogenes [1]) | Activity (HeLa) | Activity (Coxsackievirus B1 [2]) | Activity (Staphylococcus aureus [3]) | Activity (Influenza A virus [4]) | Activity (Staphylococcus aureus [5]) | Activity (Enterococcus faecalis [6]) | Activity (Staphylococcus aureus [7]) | Activity (Bacillus subtilis [8]) | Activity (Human alphaherpesvirus 1) | Activity [9] | MIC (Enterococcus faecalis [11]) | MIC (Staphylococcus aureus [12]) | zone of inhibition at 1000 µg/mL (Influenza A virus [13]) | zone of inhibition at 1000 µg/mL (Coxsackievirus B1 [15]) | MIC (Streptococcus pyogenes [16]) | MIC (Bacillus subtilis [17]) | MIC (Staphylococcus aureus [18]) | other results |
| --- | --- | --- | --- | --- | --- | --- | --- | --- | --- | --- | --- | --- | --- | --- | --- | --- | --- | --- | --- |
| O=C1N/C(=N\c2ccccc2)SC1Cc1c[nH]c2ccccc12 (racemic) | inactive | Non-toxic | inactive | inactive | inactive | inactive | inactive | inactive | inactive | inactive | Non-toxic |  |  |  |  |  |  |  |  |
| C[C@H](c1c[nH]c2ccccc12)[C@@H]1SC(NCCN(C)C)=NC1=O.Cl (racemic) | inactive | Non-toxic | inactive | inactive | inactive | inactive | inactive | inactive | inactive | inactive | Non-toxic |  |  |  |  |  |  |  |  |
| CNC1=NC(=O)[C@H]([C@H](C)c2c[nH]c3ccccc23)S1 (racemic) [listing 1 of 2 here] |  |  |  |  |  |  |  |  |  | inactive |  |  |  |  |  |  |  |  |  |
| CNC1=NC(=O)[C@H]([C@H](C)c2c[nH]c3ccccc23)S1 |  |  |  |  |  |  |  |  |  | inactive |  |  |  |  |  |  |  |  |  |
| CNC1=NC(=O)C(Cc2cn(C)c3ccccc23)S1 (racemic) | inactive | Non-toxic | inactive | inactive | inactive | inactive | inactive | inactive | inactive | inactive | Non-toxic |  |  |  |  |  |  |  |  |
| CN(C)C1=NC(=O)C(Cc2c[nH]c3ccccc23)S1 (racemic) | inactive | Non-toxic | inactive | inactive | inactive | inactive | inactive | inactive | inactive | inactive | Non-toxic |  |  |  |  |  |  |  |  |
| C[C@H](c1c[nH]c2ccccc12)[C@@H]1SC(N)=NC1=O |  |  |  |  |  |  |  |  |  | inactive |  | 20 µg/mL (≈ 77.1 µM) | 20 µg/mL (≈ 77.1 µM) | 0 mm | 0 mm | 200 µg/mL (≈ 771 µM) | 200 µg/mL (≈ 771 µM) | 20 µg/mL (≈ 77.1 µM) | PDD50 (Influenza A virus [10]): 50 µg/mL; MCC [14]: 100 µg/mL |
| CC1(C)S[C@@H]2[C@H](NC(=O)[C@H](N)c3ccccc3)C(=O)N2[C@H]1C(=O)O [AMPICILLIN] |  |  |  |  |  |  |  |  |  |  |  | 2 µg/mL (≈ 5.72 µM) | 2 µg/mL (≈ 5.72 µM) |  |  | 2 µg/mL (≈ 5.72 µM) | 2 µg/mL (≈ 5.72 µM) | 20 µg/mL (≈ 57.2 µM) | MIC (Staphylococcus aureus [19]): 2 µg/mL (≈ 5.72 µM) |
| NC1=NC(=O)C(Cc2c[nH]c3ccccc23)S1 (racemic) |  |  |  |  |  |  |  |  |  | inactive |  | 200 µg/mL (≈ 815 µM) | 200 µg/mL (≈ 815 µM) | 0 mm | 0 mm | > 200 µg/mL | > 200 µg/mL | 200 µg/mL (≈ 815 µM) | MIC (Staphylococcus aureus [19]): 200 µg/mL (≈ 815 µM) |
| O=C1N=C(NCCO)SC1Cc1c[nH]c2ccccc12 (racemic) | inactive | Non-toxic | inactive | inactive | inactive | inactive | inactive | inactive | inactive | inactive | Non-toxic |  |  |  |  |  |  |  |  |
| CCN1C(=N)SC(Cc2c[nH]c3ccccc23)C1=O (racemic) | inactive | Non-toxic | inactive | inactive | inactive | inactive | inactive | inactive | inactive | inactive | Non-toxic |  |  |  |  |  |  |  |  |
| CNC1=NC(=O)[C@H]([C@H](C)c2c[nH]c3ccccc23)S1 (racemic) [listing 2 of 2 here] |  |  |  |  |  |  |  |  |  |  |  | 2 µg/mL (≈ 7.32 µM) | 2 µg/mL (≈ 7.32 µM) | 36 mm | 29 mm | 200 µg/mL (≈ 732 µM) | 20 µg/mL (≈ 73.2 µM) | 2 µg/mL (≈ 7.32 µM) | PDD50 (Influenza A virus [10]): 3 µg/mL; PDD50 (Coxsackievirus B1 [20]): 5 µg/mL; MIC (Staphylococcus aureus [19]): 2 µg/mL (≈ 7.32 µM); MCC [14]: 10 µg/mL; MCC [21]: 30 µg/mL |
| C[C@H](c1c[nH]c2ccccc12)[C@@H]1SC(N(C)C)=NC1=O (racemic) |  |  |  |  |  |  |  |  |  | inactive |  | > 200 µg/mL | 20 µg/mL (≈ 69.6 µM) | 0 mm | 0 mm | > 200 µg/mL | > 200 µg/mL | 20 µg/mL (≈ 69.6 µM) | MIC (Staphylococcus aureus [19]): 20 µg/mL (≈ 69.6 µM) |
| CNC1=NC(=O)[C@@H]([C@H](C)c2c[nH]c3ccccc23)O1 (racemic) |  |  |  |  |  |  |  |  |  |  |  | 200 µg/mL (≈ 777 µM) | 200 µg/mL (≈ 777 µM) | 0 mm | 0 mm | > 200 µg/mL | > 200 µg/mL | 200 µg/mL (≈ 777 µM) | PDD50 (Influenza A virus [10]): >100 µg/mL; MIC (Staphylococcus aureus [19]): 200 µg/mL (≈ 777 µM); MCC [14]: > 100 µg/mL |
| O=C1NC(=S)SC1Cc1c[nH]c2ccccc12 (racemic) | inactive | Non-toxic | inactive | inactive | inactive | inactive | inactive | inactive | inactive | inactive | Non-toxic |  |  |  |  |  |  |  |  |
| C/N=C1/SC(Cc2c[nH]c3ccccc23)C(=O)N1C (racemic) | inactive | Non-toxic | inactive | inactive | inactive | inactive | inactive | inactive | inactive | inactive | Non-toxic |  |  |  |  |  |  |  |  |
| C/N=C1/S[C@@H]([C@H](C)c2c[nH]c3ccccc23)C(=O)N1C (racemic) | inactive | Non-toxic | inactive | inactive | inactive | inactive | inactive | inactive | inactive | inactive | Non-toxic | 2 µg/mL (≈ 6.96 µM) | 2 µg/mL (≈ 6.96 µM) |  |  | 200 µg/mL (≈ 696 µM) | 20 µg/mL (≈ 69.6 µM) | 2 µg/mL (≈ 6.96 µM) | PDD50 (Influenza A virus [10]): 1.2 µg/mL; PDD50 (Coxsackievirus B1 [20]): 3 µg/mL; MIC (Staphylococcus aureus [19]): 2 µg/mL (≈ 6.96 µM); MCC [14]: 4 µg/mL; MCC [21]: 12 µg/mL |
| NC(=O)c1ncn([C@@H]2O[C@H](CO)[C@@H](O)[C@H]2O)n1 [RIBAVIRIN] |  |  |  |  |  |  |  |  |  |  |  |  |  | 28 mm | 0 mm |  |  |  | PDD50 (Influenza A virus [10]): 1 µg/mL; PDD50 (Coxsackievirus B1 [20]): >100 µg/mL; MCC [14]: > 100 µg/mL; MCC [21]: > 100 µg/mL |
| CNC1=NC(=O)[C@H]([C@H](C)c2c[nH]c3ccccc23)O1 (racemic) [INDOMYCIN] |  |  |  |  |  |  |  |  |  |  |  | 2 µg/mL (≈ 7.77 µM) | 2 µg/mL (≈ 7.77 µM) | 0 mm | 0 mm | 200 µg/mL (≈ 777 µM) | 20 µg/mL (≈ 77.7 µM) | 2 µg/mL (≈ 7.77 µM) | PDD50 (Influenza A virus [10]): >100 µg/mL; MIC (Staphylococcus aureus [19]): 2 µg/mL (≈ 7.77 µM); MCC [14]: > 100 µg/mL |
| CCNC1=NC(=O)C(Cc2c[nH]c3ccccc23)S1 (racemic) | inactive | Non-toxic | inactive | inactive | inactive | inactive | inactive | inactive | inactive | inactive | Non-toxic |  |  |  |  |  |  |  |  |
| CNC1=NC(=O)[C@@H]([C@@H](C)c2c[nH]c3ccccc23)S1 | inactive | Non-toxic | inactive | inactive | inactive | inactive | inactive | inactive | inactive | inactive | Non-toxic |  |  |  |  |  |  |  |  |
| O=C1N=C(NCc2ccccc2)SC1Cc1c[nH]c2ccccc12 (racemic) | inactive | Non-toxic | inactive | inactive | inactive | inactive | inactive | inactive | inactive | inactive | Non-toxic |  |  |  |  |  |  |  |  |
| CN1C(=N)SC(Cc2c[nH]c3ccccc23)C1=O (racemic) | inactive | Non-toxic | inactive | inactive | inactive | inactive | inactive | inactive | inactive | inactive | Non-toxic |  |  |  |  |  |  |  |  |
| OC(c1ccccc1)c1nc2ccccc2[nH]1 (stereo not drawn) |  |  |  |  |  |  |  |  |  |  |  |  |  | 0 mm | 24 mm |  |  |  | PDD50 (Influenza A virus [10]): >100 µg/mL; PDD50 (Coxsackievirus B1 [20]): 20 µg/mL; MCC [14]: > 100 µg/mL; MCC [21]: 100 µg/mL |
